Source: US20100056627A1, “PHARMACEUTICAL COMPOSITIONS OF ALKYL GALLATES” (priority 2006, published 2010)
Where two headings read alike, the source gives them in different places.

Experiments:
[1] = tested on: clinical isolates MRSA and MSSA
[2] = tested on: influenza virus in MDCK cells; format: cell-based
[3] = tested on: Candida albicans ATCC 10231; assay: Time required for killing mold, octyl gallate and propyl gallate (FIG. 2); format: cell-based; settings: concomitant use of octyl gallate and propyl gallate, FIG. 2
Source text: FIG. 2 is a graph showing shortening of the time required for killing mold by the concomitant use of octyl gallate and propyl gallate against Candida albicans ATCC 10231.

influenza virus B/T/1/05 = assay: Time course of virucidal activity at 37° C., infectivity by plaque assay in MDCK cells (FIGS. 6 to 12); format: cell-based
Procedure: The experiments in FIGS. 7 to 12 were carried out at 37° C. The infectivity of viruses was determined using MDCK cells by the plaque assay method.
This virucidal activity of octyl gallate was reinforced by propyl gallate also against influenza virus A/Aichi (H3N2) in the same manner as above.

herpes virus (HSV-1) = assay: Virucidal activity against HSV-1 (Tables 14, 15, FIG. 5); format: cell-based
[4] = tested on: influenza virus A/Aichi (H3N2); assay: Virucidal activity against influenza virus A/Aichi (H3N2) (Table 16); settings: for No of plaques: Table 16
MRSA COL strain = assay: Time required for killing bacteria, octyl gallate and propyl gallate (FIG. 1); format: cell-based, Staphylococcus aureus; settings: concomitant use of octyl gallate and propyl gallate
Source text: FIG. 1 is a graph showing shortening of the time required for killing bacteria by the concomitant use of octyl gallate and propyl gallate against MRSA COL strain.

fungi (mold) = assay: MIC of octyl gallate against fungi (mold) with trisodium citrate and propyl gallate; format: cell-based; settings: for MIC: 24 h, read-out: Octyl gallate MIC, SDA (+0.9% trisodium citrate), 24 hr, triplicate

In the case of CCCCCCCCOC(=O)c1cc(O)c(O)c(O)c1 [octyl gallate], the “MIC Range, 24 h MIC, MRSA” value ([1]; disodium hydrogen citrate medium, propyl gallate 50 mg/L) is reported as 0.625 to 1.25 µg/mL, the “MIC Range, 24 h MIC, MRSA” value ([1]; trisodium citrate medium, J-1216 600 mg/L) is reported as 20 to 50 µg/mL and the “MIC Range, 24 h MIC, MRSA” value ([1]; trisodium citrate medium, propyl gallate 75 mg/L) is reported as 2.5 to 10 µg/mL. For the same molecule, the “MIC Range, 24 h MIC, MRSA” value ([1]; trisodium citrate medium, propyl gallate 100 mg/L) was 1.25 to 5 µg/mL, the “MIC Range, 24 h MIC, MRSA” value ([1]; trisodium citrate medium, propyl gallate 200 mg/L) was 0.0625 to 5 µg/mL and the “growth inhibition of influenza virus in MDCK cells” value [2] was “markedly reinforced”. The “growth of influenza virus in MDCK cells” value [2] was “inhibits the growth”, the “time required for killing mold” value [3] was “shortened to a large extent” and the “time required for killing viruses” value (influenza virus B/T/1/05; concomitant use of octyl gallate and propyl gallate, FIG. 6) was “shortened to a large extent”. For the same molecule, the “virucidal activity of octyl gallate alone” value (influenza virus B/T/1/05; influenza virus B/T/1/05, FIG. 7) was “has a virucidal activity”, the “time until the infectivity to cells is lost” value (influenza virus B/T/1/05; octyl gallate 30 mg/L and propyl gallate 300 mg/L, 37° C., FIG. 12) was ≤ 1 min and the No of plaques (herpes virus (HSV-1); Table 14, octyl gallate 10 mg/L, J1816 30 mg/L, Na3citrate 0.90%) was 0. The No of plaques (herpes virus (HSV-1); Table 14, octyl gallate 10 mg/L, propyl gallate 300 mg/L, J1816 120 mg/L, Na3citrate 0.90%) was 0, the No of plaques (herpes virus (HSV-1); Table 14, octyl gallate 20 mg/L, J1816 60 mg/L, Na3citrate 0.90%) was 0 and the No of plaques (herpes virus (HSV-1); Table 14, octyl gallate 20 mg/L, propyl gallate 300 mg/L, J1816 150 mg/L, Na3citrate 0.90%) was 0. It also gave a No of plaques (herpes virus (HSV-1); Table 14, octyl gallate 30 mg/L, J1816 90 mg/L, Na3citrate 0.90%) of 0, a No of plaques (herpes virus (HSV-1); Table 14, octyl gallate 30 mg/L, propyl gallate 300 mg/L, J1816 180 mg/L, Na3citrate 0.90%) of 0 and a No of plaques (herpes virus (HSV-1); Table 14, octyl gallate 60 mg/L, J1816 180 mg/L, Na3citrate 0.90%) of 0. The No of plaques (herpes virus (HSV-1); Table 14, octyl gallate 60 mg/L, J1816 180 mg/L, Na3citrate not given) was 0, the No of plaques (herpes virus (HSV-1); Table 14, octyl gallate 60 mg/L, propyl gallate 300 mg/L, J1816 270 mg/L, Na3citrate 0.90%) was 0 and the No of plaques (herpes virus (HSV-1); Table 14, octyl gallate 100 mg/L, J1816 300 mg/L, Na3citrate 0.90%) was 0. The No of plaques (herpes virus (HSV-1); Table 14, octyl gallate 100 mg/L, propyl gallate 300 mg/L, J1816 390 mg/L, Na3citrate 0.90%) was 0, the No of plaques (herpes virus (HSV-1); Table 15, octyl gallate 10 mg/L, J1816 0, NaCitrate 0.90%) was 48 and the No of plaques (herpes virus (HSV-1); Table 15, octyl gallate 10 mg/L, propyl gallate 300 mg/L, J1816 0, NaCitrate 0.90%) was 11. The No of plaques (herpes virus (HSV-1); Table 15, octyl gallate 20 mg/L, J1816 0, NaCitrate 0.90%) was 0, the No of plaques (herpes virus (HSV-1); Table 15, octyl gallate 20 mg/L, propyl gallate 300 mg/L, J1816 0, NaCitrate 0.90%) was 0 and the No of plaques (herpes virus (HSV-1); Table 15, octyl gallate 30 mg/L, J1816 0, NaCitrate 0.90%) was 0. For the same molecule, the No of plaques (herpes virus (HSV-1); Table 15, octyl gallate 30 mg/L, propyl gallate 300 mg/L, J1816 0, NaCitrate 0.90%) was 0, the No of plaques (herpes virus (HSV-1); Table 15, octyl gallate 60 mg/L, J1816 0, NaCitrate 0.90%) was 0 and the No of plaques (herpes virus (HSV-1); Table 15, octyl gallate 60 mg/L, propyl gallate 300 mg/L, J1816 0, NaCitrate 0.90%) was 0. The No of plaques (herpes virus (HSV-1); Table 15, octyl gallate 100 mg/L, J1816 0, NaCitrate 0.90%) was 0, the No of plaques (herpes virus (HSV-1); Table 15, octyl gallate 100 mg/L, propyl gallate 300 mg/L, J1816 0, NaCitrate 0.90%) was 0 and the “virucidal activity of octyl gallate against HSV-1” value (herpes virus (HSV-1); with 60 mg/L of propyl gallate, FIG. 5) was “marked reinforcement”. It also gave a No of plaques ([4]; octyl gallate 20 mg/L, J1816 60 mg/L, NaCitrate 0.90%) of 0, a No of plaques ([4]; octyl gallate 20 mg/L, propyl gallate 300 mg/L, J1816 150 mg/L, NaCitrate 0.90%) of 0 and a No of plaques ([4]; octyl gallate 40 mg/L, J1816 20 mg/L, NaCitrate 0.90%) of 0. For the same molecule, the No of plaques ([4]; octyl gallate 40 mg/L, propyl gallate 300 mg/L, J1816 210 mg/L, NaCitrate 0.90%) was 0, the No of plaques ([4]; octyl gallate 60 mg/L, J1816 180 mg/L, NaCitrate 0.90%) was 0 and the No of plaques ([4]; octyl gallate 60 mg/L, J1816 180 mg/L, NaCitrate not given) was 0. The No of plaques ([4]; octyl gallate 60 mg/L, propyl gallate 300 mg/L, J1816 270 mg/L, NaCitrate 0.90%) was 0, the No of plaques ([4]; octyl gallate 80 mg/L, J1816 240 mg/L, NaCitrate 0.90%) was 0 and the No of plaques ([4]; octyl gallate 80 mg/L, propyl gallate 300 mg/L, J1816 330 mg/L, NaCitrate 0.90%) was 0. For the same molecule, the No of plaques ([4]; octyl gallate 100 mg/L, J1816 300 mg/L, NaCitrate 0.90%) was 0, the No of plaques ([4]; octyl gallate 100 mg/L, propyl gallate 300 mg/L, J1816 390 mg/L, NaCitrate 0.90%) was 0 and the “virucidal activity of octyl gallate against influenza virus A/Aichi (H3N2)” value ([4]; with propyl gallate) was “reinforced”. The “time required for killing bacteria” value (MRSA COL strain) was “shortened to a large extent”, the MIC (fungi (mold); phosphate buffer (1 mM), propyl gallate 0) was 20 µg/mL and the MIC (fungi (mold); propyl gallate 300 μg/mL) was 10 µg/mL. For the same molecule, the MIC (fungi (mold); propyl gallate 1000 μg/mL) was 10 µg/mL and the “antimicrobial activity against fungi (mold)” value (fungi (mold); […]) was “reinforced”.
